Data set [1] deals with lipopolysaccharide (LPS) isolated from P. aeruginosa. The data set can be described thus: Binding ability between lipopolysaccharide (LPS) and peptide. To be noted: peptide at 1×MIC. The protocol: By using the peptides prepared by the method of Example 1, binding to lipopolysaccharide (LPS), which is a constitutional component of a cell wall of Gram-negative bacteria, was examined. LPS used in the present invention was isolated from P. aeruginosa. Lipopolysacchride (0 to 100 μg/ml) was diluted with 10 mM sodium phosphate buffer (pH 7.2), reacted with each peptide at a concentration of 1× or 2×MIC, and then cultured with the bacteria at 2×10^5 CFU/ml. By measuring the absorbance at 600 nm, the binding ability to the peptide was determined. Additionally, after reacting 0.1% […] with the peptide (40 μM) in an incubator, the secondary structure was examined by circular dichroism (CD) spectroscopy.

Data set [2] relates to S. aureus or P. aeruginosa membrane. The data set can be described thus: Flow cytometry with propidium iodide. It counts as cell-based. The conditions noted are these: 2×MIC, 1 hour at 37° C. The protocol: Specifically, S. aureus or P. aeruginosa was treated for 1 hour at 37° C. with the mother peptide Hp1404, or Hp1404-T1c, Hp1404-T1d or Hp1404-T1e peptide (at concentration of 2×MIC). After that, the supernatant was removed by centrifuge (10,000 rpm) and stained with propidium iodide (PI, concentration of 10 μg/ml) for 30 minutes at 4° C. Thereafter, unbound propidium iodide was removed by centrifuge, and the problem of cell aggregation phenomenon was solved by adding physiological saline (PBS) in an amount of 1 ml.

A further data set concerns L. monocytogenes. The data set can be described thus: MIC, L. monocytogenes. It is filed as cell-based, Listeria monocytogenes. To be noted: L. monocytogenes (KCTC 3710), 18 hours at 37° C. From the text:
(§1) To compare the antimicrobial activity among the peptides produced by the method of Example 1, the inventors of the present invention measured the minimal growth inhibitory concentration (MIC), which is minimum concentration of the peptide showing no dissociation of bacterial cells.
(§2) Specifically, the bacterial strain described in the following Table 2 was purchased and cultured to a mid-log phase in each medium with a composition suitable for each strain. Then, after dilution to bacterial cell concentration of 2×10^4 cells/100 μl, the cells were inoculated to a microtiter plate (NUNC, USA). Thereafter, Hp1404-T1, Hp1404-T1a, Hp1404-T1b, Hp1404-T1c, Hp1404-T1d or Hp1404-T1e peptide which has been synthesized in Example 1 above was subjected to serial dilution, ½ times for each, with BSA (bovine serum albumin) solution in a 96-well plate. After adding the cells to a plate, the cells were cultured for 18 hours at 37° C. By using a microtiter plate reader (Merck Elisa reader, Germany), the absorbance was measured at a wavelength of 600 nm to determine the MIC value of each bacterial strain. As a control group, Hp1404 as a mother peptide was used.

The subject of data set [3] is erythrocytes of a mouse (Balb/c). The data set can be described thus: Hemolytic activity. It is filed as cell-based. The protocol:
To compare the cytotoxicity among the peptides that are produced by the method of Example 1, erythrocyte hemolytic activity of the synthesized peptide was measured.
Specifically, erythrocytes of a mouse (Balb/c, 6 week old, female) were diluted in physiological saline (PBS, pH 7.0) to have concentration of 8%, and then subjected to a treatment with Hp1404, Hp1404-T1, Hp1404-T1a, Hp1404-T1b, Hp1404-T1c, Hp1404-T1d or Hp1404-T1e, each at concentration of 6.25, 12.5, 25.0, 50.0, 100.0 and 200.0 μM/well, respectively, followed by a reaction for 1 hour at 37° C. After that, the amount of hemoglobin contained in a supernatant collected by centrifuge at 1,000×g was determined by measuring the absorbance at a wavelength of 414 nm. As a control group to be used as a reference for cell disruption level, the supernatant collected by a treatment with 1% Triton X-100 (Sigma, USA) and a reaction for 1 hour at 37° C. was used to measure the absorbance. By setting the resulting absorbance value at 100%, the hemolytic activity of each peptide was calculated using the following mathematical formula 1. Erythrocyte disrupting ability (hemolysis) (%)=(Absorbance A−Absorbance B)/(Absorbance C−Absorbance B)×100 [Mathematical formula 1] (in the above formula, Absorbance A indicates the absorbance of a reaction solution treated with each peptide, in which the absorbance is measured at a wavelength of 414 nm; Absorbance B indicates the absorbance of a reaction solution treated with PBS, in which the absorbance is measured at a wavelength of 414 nm; and Absorbance C indicates the absorbance of a reaction solution treated with 1% Triton X-100, in which the absorbance is measured at a wavelength of 414 nm).

A short description of data set [4]: Cytotoxicity in normal cell line (MTT). It is filed as cell-based. The conditions noted are these: human, HaCaT keratinocytes, read-out: Cell survival ability; for viability at 24 h, 6.25 µM: peptide concentration 6.25 μM; for viability at 24 h, 12.5 µM: peptide concentration 12.5 μM; for viability at 24 h, 25 µM: peptide concentration 25 μM; for viability at 24 h, 50 µM: peptide concentration 50 μM; for viability at 24 h, 100 µM: peptide concentration 100 μM; for viability at 24 h, 200 µM: peptide concentration 200 μM, HaCaT. The protocol: To determine the cytotoxicity of the peptide produced by the method of Example 1 in normal cell line, toxicity was measured by using human keratinocytes (HaCaT cell line, Dr. N E. Fusenig, Heidelberg, Germany).
Specifically, HaCaT cells which have been cultured in DMEM medium containing 10% FBS (Fetal Bovine Serum) were aliquoted in a 96-well plate to have 2×10^5 cells per well. After culturing them for 24 hours, the cells were subjected to a treatment with Hp1404, Hp1404-T1, Hp1404-T1a, Hp1404-T1b, Hp1404-T1c, Hp1404-T1d, or Hp1404-T1e, each at concentration of 6.25, 12.5, 25.0, 50.0, 100.0 or 200.0 μM/well, followed by reaction for 24 hours in a 5% CO2 incubator. After 24 hours, a reaction solution containing 0.5 mg/ml MTT (Thiazolyl Blue Tetrazolium Bromide) dissolved in physiological saline (PBS) was added in an amount of 100 μl to each well and the reaction was allowed to occur for 4 hours. After that, the supernatant was removed, and, by dissolving MTT crystals that are formed by adding 200 μl of DMSO (dimethyl sulfoxide), the absorbance at 560 nm was measured to determine the cell survival ability.

The nature of data set [5]: Stability against trypsin enzyme (RP-HPLC). The conditions noted are these: 20 nM trypsin, 37° C., read-out: amount of remaining peptide; for remaining at 1 h, 200 μg/mL: reaction for 1 hour; for remaining at 2 h, 200 μg/mL: reaction for 2 hours. It counts as in vitro ADME. The protocol: To determine whether or not the peptides prepared by the method of Example 1 have stability against an enzyme, RP-HPLC (reverse-phase HPLC) was carried out. Specifically, 20 μg of the peptide was reacted with 100 μl of trypsin at concentration of 20 nM for 1 to 2 hours at 37° C. After the reaction, 20 μl of the reaction product was applied to RP-HPLC, and the amount of remaining peptide was examined.

The subject of a further data set is E. coli. The data set can be described thus: MIC, E. coli. It is filed as cell-based, Escherichia coli. The conditions noted are these: E. coli (ATCC 25922), 18 hours at 37° C.
Text: as §1, §2

Where no end group is shown, it is not given here. Where only a bound is given, the exact number is not on record here.

The amount remaining is the share of the starting amount still present when the sample was taken. For the substance GILGKLWEGVKSIF-NH2 [Hp1404], in data set [1], the “binding to LPS, rank order” value is “binding to LPS increases in order of Hp1404-T1e, Hp1404-T1d, Hp1404-T1c, and Hp1404”. Also, the “propidium iodide fluorescence signal shift (membrane damage)” value in data set [2] is “bacteria membrane was damaged”. Moreover, the Minimal inhibitory concentration with L. monocytogenes came to 3.13 µM. In addition, in data set [3] (peptide concentration 6.25 μM), the Erythrocyte disrupting ability is recorded as 0.01%. Moreover, the Erythrocyte disrupting ability in data set [3] (peptide concentration 12.5 μM) came to 2.16%. In addition, in data set [3] (peptide concentration 25 μM), the Erythrocyte disrupting ability is recorded as 11.01%. In addition, the Erythrocyte disrupting ability in data set [3] (peptide concentration 50 μM) stood at 55.41%. In addition, in data set [3] (peptide concentration 100 μM), the Erythrocyte disrupting ability is 92.64%. The substance further had an Erythrocyte disrupting ability in data set [3] (peptide concentration 200 μM, 1 hour at 37° C., relative to 1% Triton X-100) of 100%. Also, in data set [4], the viability at 24 h, 6.25 µM was determined as 100%; the viability at 24 h, 12.5 µM came to 100%; the viability at 24 h, 25 µM was 100%; the viability at 24 h, 50 µM is 30.5%. Moreover, in data set [4], the viability at 24 h, 100 µM turned out to be 0.11% and the viability at 24 h, 200 µM was found to be 0%. Besides, in data set [5], the fraction remaining at 1 h, 200 μg/mL amounted to 60% and the share remaining at 2 h, 200 μg/mL turned out to be 45%. In the data set on E. coli, the Minimal inhibitory concentration is 6.25 µM.
As to ILKKLLKKVKKI-NH2 [Hp1404-T1e], the “binding to LPS, rank order” value in data set [1] was “binding to LPS increases in order of Hp1404-T1e, Hp1404-T1d, Hp1404-T1c, and Hp1404”. Moreover, the “propidium iodide fluorescence signal shift (membrane damage)” value in data set [2] is listed as “no such shift of fluorescence signal”. For the same substance, the Minimal inhibitory concentration with L. monocytogenes was over 25 µM. In data set [3] (peptide concentration 6.25 μM), this substance came in with an Erythrocyte disrupting ability of 0.10%. For the same substance, in data set [3] (peptide concentration 12.5 μM), the Erythrocyte disrupting ability was found to be 0.28%. In data set [3] (peptide concentration 25 μM), this substance came in with an Erythrocyte disrupting ability of 0.41%. Moreover, the Erythrocyte disrupting ability in data set [3] (peptide concentration 50 μM) came out at 0%. This substance also had an Erythrocyte disrupting ability in data set [3] (peptide concentration 100 μM) of 0.15%. Moreover, in data set [4], the viability at 24 h, 6.25 µM worked out at 100%; the viability at 24 h, 12.5 µM was found to be 100%; the viability at 24 h, 25 µM was determined as 100%; the viability at 24 h, 50 µM is 100%. In addition, in data set [4], the viability at 24 h, 100 µM turned out to be 100% and the viability at 24 h, 200 µM came out at 100%. In data set [5], the amount remaining at 1 h, 200 μg/mL is at least 80% and the amount remaining at 2 h, 200 μg/mL amounted to 80%. In the data set with E. coli, this substance gave a Minimal inhibitory concentration of over 25 µM.
With ILKKLLKKVKSI-NH2 [Hp1404-T1d], the “binding to LPS, rank order” value in data set [1] is “binding to LPS increases in order of Hp1404-T1e, Hp1404-T1d, Hp1404-T1c, and Hp1404”. Moreover, the “propidium iodide fluorescence signal shift (membrane damage)” value in data set [2] was “no such shift of fluorescence signal”. For the same substance, in the data set on L. monocytogenes, the Minimal inhibitory concentration is over 25 µM. The substance further showed an Erythrocyte disrupting ability in data set [3] (peptide concentration 6.25 μM) of 0%. In data set [3] (peptide concentration 12.5 μM), this substance registered an Erythrocyte disrupting ability of 0%. In addition, the Erythrocyte disrupting ability in data set [3] (peptide concentration 25 μM) stood at 0%. Moreover, the Erythrocyte disrupting ability in data set [3] (peptide concentration 50 μM) amounted to 0%. This substance came in with an Erythrocyte disrupting ability in data set [3] (peptide concentration 100 μM) of 0%. In addition, in data set [4], the viability at 24 h, 6.25 µM was 100%; the viability at 24 h, 12.5 µM amounted to 53.9%; the viability at 24 h, 25 µM came out at 38.9%; the viability at 24 h, 50 µM is 33.1%. For the same substance, in data set [4], the viability at 24 h, 100 µM came to 34.6%. Moreover, in data set [5], the share remaining at 1 h, 200 μg/mL is at least 80% and the amount remaining at 2 h, 200 μg/mL worked out at 80%. In the data set with E. coli, this substance yielded a Minimal inhibitory concentration of over 25 µM.

Values taken from patent US11117931B2, “Antimicrobial peptide derived from Hp1404 peptide and uses thereof” (priority 2017, dated 2021).
